Results published in patent US12398180B2, “Treatment of non-alcoholic fatty liver disease” (NURITAS LIMITED, priority 2019, dated 2025).
Where two headings read alike, the source gives them in different places. Square brackets hold non-standard residues; d marks the D form. Peptide text beside a SMILES is read from it.

Experiments:
[1] = system: human skeletal muscle cells; experiment: Glucose uptake in skeletal muscle cells; type: cell-based; details: compared with control (FIG. 5)
[2] = Stability in-vivo
[3] = system: primary human hepatic stellate cells; experiment: Anti-fibrotic effect in TGF-β stimulated primary hepatic stellate cells (ACTA2 staining); type: cell-based; details: 10 μM
Experimental: The procedure was performed as described above for the CY5 labelled peptide imaging in HSkMCs with a few minor modifications. Primary hepatic stellate cells were investigated as they are considered to be the most relevant profibrogenic cells operating in acute and chronic liver diseases. The stellate cells were seeded directly onto the glass coverslips at a density of 5,000 cells/mL. After starvation, the cells were treated with pep_1E99R5 (5 ng/mL) or Elafibranor (10 μM) for 6 hours. The cells were washed and subsequently treated with 5 ng/ml […] (Bio Techne, Minneapolis, MN, United States) for 24 hours to induce fibrosis. The cells were fixed and stained with ACTA2 antibody (Assay Genie, Dublin, Ireland), a marker of fibroblast activation.
The confocal images were analysed with custom Python scripts using the scikit-image library version 0.15. The cells and nuclei were segmented using a simple threshold computed using the mean value of the image. Using the Nuclei as a seed we separated the cells in the cell mask using watershed segmentation. Cell size was then quantified in pixels. [Stéfan van der Walt, Johannes L. Schönberger, Juan Nunez-Iglesias, Frangois Boulogne, Joshua D. Warner, Neil Yager, Emmanuelle Gouillart, Tony Yu and the scikit-image contributors. scikit-image: Image processing in Python. PeerJ 2:e453 (2014)

[4] = PK profile (half-life); details: in vivo
[5] = in humans; cited from earlier work
[6] = system: lipoproteins; details: binding to lipoproteins; cited from earlier work
[7] = system: C57BL/6 mice; experiment: Acetaminophen (APAP)-induced acute liver injury mouse model, ALT/AST; type: in vivo; details: inferred from ALT/AST time course
Experimental: Animals for Acetaminophen (APAP)-induced Acute Liver Injury Mouse Model: All animal procedures were performed by Melior Discovery (Exton, PA, USA) in accordance with Institutional Animal Care and Use (IACUC) guidelines in an AAALAC-accredited facility. […] Studies were performed with 8-week-old male C57BL/6 mice obtained from the Charles River Laboratory and were randomly assigned to the treatment groups based on body mass. Mice were acclimated for 7 days and housed 4 per cage on a 12-hour light/dark cycle with ad libitum access to standard rodent chow and water.

[8] = system: Human primary cells; experiment: Cytotoxicity in primary human cell-based systems (SRB / alamarBlue); details: at the concentration tested
Experimental: Systems are derived from either single cell types or co-culture systems. Adherent cell types are cultured in 96 or 384-well plates until confluence, followed by the addition of PBMC (SAg and LPS systems). The BT system consists of CD19+ B cells co-cultured with PBMC and stimulated with a BCR activator and low levels of TCR stimulation. Test agents prepared in either DMSO (small molecules; final concentration s 0.1%) or PBS (biologics) are added at the indicated concentrations 1-hr before stimulation, and remain in culture for 24 h or as otherwise indicated (48 h, MyoF system; 72 h, BT system (soluble readouts); 168 h, BT system (secreted IgG)). […] Soluble factors from supernatants are quantified using either HTRF® detection, bead-based multiplex immunoassay or capture ELISA. Overt adverse effects of test agents on cell proliferation and viability (cytotoxicity) are detected by sulforhodamine B (SRB) staining, for adherent cells, and alamarBlue® reduction for cells in suspension. For proliferation assays, individual cell types are cultured at subconfluence and measured at time points optimized for each system (48 h: 3C and CASM3C systems; 72 h: BT and HDF3CGF systems; 96 h: SAg system). […]

In the case of “1(clac)wKE(Me)EC1GK(Me)PLVk-OH (Ac-[dW]KEXCGKXLV[dK]-OH; thioether (positions not given here); not fully specified (residues 4, 8, bridges); printed as 1(clac)wKE(Me)EC1GK(Me)PLVk-OH) [SEQUENCE ID NO: 3]”, the “glucose uptake in human skeletal muscle cells in-vitro” value [1] is reported as “significantly increases” and the stability in-vivo [2] is reported as “enhanced stability”.

In the case of `CSc1ccc(C(=O)/C=C/c2cc(C)c(OC(C)(C)C(=O)O)c(C)c2)cc1` [Elafibranor], the “anti-fibrotic effect in stimulated stellate cells” value [3] is reported as “anti-fibrotic effects”.

With `CC(C)C[C@H](NC(=O)[C@@H]1CCCN1C(=O)[C@H](CCCCN)NC(=O)CNC(=O)[C@@H](C)NC(=O)[C@H](CCC(=O)O)NC(=O)[C@H](CC(=O)O)NC(=O)[C@@H](CCCCN)NC(=O)[C@H](N)Cc1c[nH]c2ccccc12)C(=O)N[C@@H](C(=O)N[C@H](CCCCN)C(=O)O)C(C)C` [SEQ ID 2, {d}W{d}KDE{d}AGKPL{d}V{d}K] (H-[dW][dK]DE[dA]GKPL[dV][dK]-OH; N-terminus and C-terminus assumed) the half-life [4] was 1.55 h.

For `C[C@@H](O)[C@@H]1NC(=O)[C@H](CCCCN)NC(=O)[C@@H](Cc2c[nH]c3ccccc23)NC(=O)[C@H](Cc2ccccc2)NC(=O)[C@@H](NC(=O)[C@H](N)Cc2ccccc2)CSSC[C@@H](C(=O)N[C@H](CO)[C@@H](C)O)NC1=O` [octreotide], the half-life [5] is listed as “about 100 min” and the fraction unbound [6] is listed as 0.65.

For `CC(C)C[C@H](NC(=O)[C@@H]1CCCN1C(=O)[C@H](CCCCN)NC(=O)CNC(=O)[C@H](C)NC(=O)[C@H](CCC(=O)O)NC(=O)[C@H](CC(=O)O)NC(=O)[C@H](CCCCN)NC(=O)[C@@H](N)Cc1c[nH]c2ccccc12)C(=O)N[C@H](C(=O)N[C@@H](CCCCN)C(=O)O)C(C)C` [pep_260] (H-WKDEAGKPLVK-OH; N-terminus and C-terminus assumed), the “duration of potent functionality in mice” value [7] was 2 h and the cytotoxicity [8] was “not cytotoxic”.

For `NC(=O)CC[C@@H]1NC(=O)[C@H](Cc2ccccc2)NC(=O)[C@H](Cc2ccc(O)cc2)NC(=O)[C@@H](N)CSSC[C@@H](C(=O)N2CCC[C@H]2C(=O)N[C@@H](CCCN=C(N)N)C(=O)NCC(N)=O)NC(=O)[C@H](CC(N)=O)NC1=O` [vasopressin], the half-life [5] is listed as 0.167 to 0.583 h.
